Values of other authors, collected in patent US8636985B2, “Functional formulation in chewing gum” (priority 2010, dated 2014).

Settings: several experimental models

Structure (SMILES): CC1=C(CO)C(=O)O[C@@H]([C@@H](C)[C@H]2CC[C@H]3[C@@H]4C[C@H]5O[C@]56[C@@H](O)C=CC(=O)[C@]6(C)[C@H]4CC[C@]23C)C1 [Withaferin A]
- anti-inflammatory and antiarthritic properties: anti-inflammatory and antiarthritic properties
